Experimental data taken from ChEMBL document CHEMBL1201862, “PubChem BioAssay data set” (2004).
Active and inactive are the calls of the source.

Legend:
Cytochrome P450 3A4 = Cytochrome P450 3A4 (Homo sapiens, UniProt P08684);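 also: CYP3A4 tested as one member of a cytochrome P450 panel screen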
Cytochrome P450 2D6 = Cytochrome P450 2D6 (Homo sapiens, UniProt P10635);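 also: CYP2D6 member of a cytochrome P450 panel assay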
Cytochrome P450 2C9 = Cytochrome P450 2C9 (Homo sapiens, UniProt P11712)
[1] = target: Peroxisome proliferator-activated receptor gamma/Nuclear receptor coactivator 1 (Homo sapiens, UniProt P37231); assay: (§1) TR-FRET dose response biochemical High Throughput Screening assay for agonists of the steroid receptor coactivator 1 (SRC-1) recruitment by the peroxisome proliferator-activated receptor gamma (PPAR gamma): non-selective agonists. [Related pubchem assays (depositor defined):AID1300, AID1808, AID504735, AID631]; format: protein assay
Sequence of Peroxisome proliferator-activated receptor gamma/Nuclear receptor coactivator 1 (P37231 whole entry): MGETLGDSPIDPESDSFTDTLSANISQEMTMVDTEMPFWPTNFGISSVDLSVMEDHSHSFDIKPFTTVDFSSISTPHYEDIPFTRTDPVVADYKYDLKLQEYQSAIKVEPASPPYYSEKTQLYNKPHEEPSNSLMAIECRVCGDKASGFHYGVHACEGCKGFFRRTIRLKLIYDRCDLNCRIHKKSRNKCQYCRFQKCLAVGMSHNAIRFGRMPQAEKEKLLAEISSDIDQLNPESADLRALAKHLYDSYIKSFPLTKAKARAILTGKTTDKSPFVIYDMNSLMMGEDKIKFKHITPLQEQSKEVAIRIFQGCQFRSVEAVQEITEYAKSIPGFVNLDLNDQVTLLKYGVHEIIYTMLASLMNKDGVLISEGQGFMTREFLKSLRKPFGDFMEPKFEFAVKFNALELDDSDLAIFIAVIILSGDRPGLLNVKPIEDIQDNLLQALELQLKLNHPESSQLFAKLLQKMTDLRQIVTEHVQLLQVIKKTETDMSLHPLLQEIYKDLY
Sequence of Peroxisome proliferator-activated receptor gamma/Nuclear receptor coactivator 1 (Q15788 whole entry, further chain): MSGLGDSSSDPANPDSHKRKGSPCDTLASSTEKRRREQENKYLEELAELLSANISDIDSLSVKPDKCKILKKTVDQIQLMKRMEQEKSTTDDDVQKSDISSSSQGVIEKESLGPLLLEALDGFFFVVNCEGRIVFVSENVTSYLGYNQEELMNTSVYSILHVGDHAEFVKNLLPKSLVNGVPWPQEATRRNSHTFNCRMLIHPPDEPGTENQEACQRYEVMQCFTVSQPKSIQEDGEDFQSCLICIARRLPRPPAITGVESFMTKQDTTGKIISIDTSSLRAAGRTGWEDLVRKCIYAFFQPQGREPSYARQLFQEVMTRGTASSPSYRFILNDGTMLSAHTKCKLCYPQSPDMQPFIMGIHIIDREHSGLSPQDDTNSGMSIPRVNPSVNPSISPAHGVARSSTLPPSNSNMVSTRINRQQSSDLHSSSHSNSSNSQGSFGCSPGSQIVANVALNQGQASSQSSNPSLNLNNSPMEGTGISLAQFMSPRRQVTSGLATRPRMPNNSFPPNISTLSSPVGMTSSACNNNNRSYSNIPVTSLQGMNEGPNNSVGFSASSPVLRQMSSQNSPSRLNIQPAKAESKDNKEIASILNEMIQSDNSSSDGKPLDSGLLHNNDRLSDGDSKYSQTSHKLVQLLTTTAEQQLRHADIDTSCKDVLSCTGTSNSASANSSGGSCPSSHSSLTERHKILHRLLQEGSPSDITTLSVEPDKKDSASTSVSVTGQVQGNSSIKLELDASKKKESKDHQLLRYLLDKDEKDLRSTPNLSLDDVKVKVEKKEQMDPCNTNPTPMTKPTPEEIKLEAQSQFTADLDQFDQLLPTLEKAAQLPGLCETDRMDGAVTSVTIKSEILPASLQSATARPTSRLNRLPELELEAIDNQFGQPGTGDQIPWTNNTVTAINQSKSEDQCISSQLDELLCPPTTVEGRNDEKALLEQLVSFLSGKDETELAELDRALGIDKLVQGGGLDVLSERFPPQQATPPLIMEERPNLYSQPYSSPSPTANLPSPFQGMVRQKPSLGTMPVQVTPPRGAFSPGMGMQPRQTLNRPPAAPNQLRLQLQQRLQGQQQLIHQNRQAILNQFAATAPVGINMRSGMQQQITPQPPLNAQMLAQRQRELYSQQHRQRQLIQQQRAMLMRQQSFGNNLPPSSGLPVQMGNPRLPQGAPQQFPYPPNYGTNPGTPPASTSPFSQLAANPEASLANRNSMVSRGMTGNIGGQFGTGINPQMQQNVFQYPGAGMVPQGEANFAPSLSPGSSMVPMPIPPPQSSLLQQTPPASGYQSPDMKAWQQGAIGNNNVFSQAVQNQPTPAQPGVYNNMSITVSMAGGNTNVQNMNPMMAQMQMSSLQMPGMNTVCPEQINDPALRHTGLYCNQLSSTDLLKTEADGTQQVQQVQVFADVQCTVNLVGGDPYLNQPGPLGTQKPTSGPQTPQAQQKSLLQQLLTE

[2] = target: Peroxisome proliferator-activated receptor gamma/Nuclear receptor coactivator 3 (Homo sapiens, UniProt P37231); assay: as §1, with “3 (SRC-3)” for “1 (SRC-1)”, “assays: 1301 (Confirmation screen.), 1048 (Primary screen.)]” for “assays (depositor defined):AID1300, AID1808, AID504735, AID631]”; format: functional
[3] = target: Peroxisome proliferator-activated receptor gamma/Nuclear receptor coactivator 2 (Homo sapiens, UniProt P37231); assay: TR-FRET dose response biochemical High Throughput Screening assay for agonists of the steroid receptor coactivator 2 (SRC-2) recruitment by the peroxisome proliferator-activated receptor gamma (PPAR gamma): non-selective agonists. [Related pubchem assays: 1297, 1032 ]; format: functional
Large T antigen = Large T antigen (Simian virus 40, UniProt P03070); format: functional, Betapolyomavirus macacae;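 also: Confirmatory-stage PubChem screen for compounds that inhibit SV40 T antigen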
Sequence of Large T antigen (P03070 whole entry): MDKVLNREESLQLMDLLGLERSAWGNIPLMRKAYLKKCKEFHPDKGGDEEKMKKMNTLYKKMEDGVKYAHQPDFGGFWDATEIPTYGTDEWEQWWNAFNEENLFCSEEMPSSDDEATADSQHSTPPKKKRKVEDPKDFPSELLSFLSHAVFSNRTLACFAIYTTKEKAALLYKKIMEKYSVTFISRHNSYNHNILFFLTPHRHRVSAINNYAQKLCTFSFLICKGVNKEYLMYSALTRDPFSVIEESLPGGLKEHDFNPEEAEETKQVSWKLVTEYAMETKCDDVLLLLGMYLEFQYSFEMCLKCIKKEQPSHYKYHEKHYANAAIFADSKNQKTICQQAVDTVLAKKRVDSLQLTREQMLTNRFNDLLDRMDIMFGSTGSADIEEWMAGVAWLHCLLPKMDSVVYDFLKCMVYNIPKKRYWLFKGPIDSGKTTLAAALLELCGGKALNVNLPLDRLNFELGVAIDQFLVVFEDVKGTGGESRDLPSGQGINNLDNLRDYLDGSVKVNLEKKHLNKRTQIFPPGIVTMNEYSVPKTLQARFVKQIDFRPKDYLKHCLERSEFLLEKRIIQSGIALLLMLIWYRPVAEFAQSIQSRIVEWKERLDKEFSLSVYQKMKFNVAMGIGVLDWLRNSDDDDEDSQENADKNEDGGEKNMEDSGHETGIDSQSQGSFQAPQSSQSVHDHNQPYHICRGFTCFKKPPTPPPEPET

Vero = assay: viability of Vero cells under compound – cytotoxicity control for flavivirus capping enzyme inhibitors (AID 588742); format: functional; conditions: Chlorocebus sabaeus
[4] = viability of uninfected HEp-2 cells – cell-based, HTS, cytotoxicity control for RSV inhibitor project, dose response (AID 2410); format: functional; conditions: human respiratory syncytial virus
[5] = luciferase reporter signal suppression in cells – H4 neuroglioma cells, luminescence, dose response (AID 1990); format: functional, cell-based
[6] = Luminescence Cell-Based Dose Response HTS to Identify Inhibitors of 5'UTR Stem-Loop Driven Prion Protein mRNA Translation in H4 Neuroglioblastoma Cells. [Related pubchem assays: 1827 (Project Summary), 1813 (Primary HTS)]; format: functional
[7] = alpha-synuclein stem-loop luciferase translation blockers – H4 neuroglioma cells, luminescence, confirmation (AID 1988); format: functional, cell-based
HEK293 [8] = assay: EBV LMP1 TES2 canonical NF-kB signalling blockers – cell-based, HEK293, luciferase, cherry-pick, dose response (AID 588343); format: functional; conditions: Homo sapiens
[9] = A549 cell cytotoxicity, dose response, cytotoxicity control, plate reader, cherry-pick, antagonist series (AID 743412); format: functional, cell-based
[10] = toxicity toward HepG2 liver cells – cell-based, plate reader, cherry-pick, antagonist series, cytotoxicity control, dose response (AID 743416); format: functional
[11] = blockers of bursicon-stimulated LGR2 cAMP reporter – cell-based, HEK293, CRE-luciferase reporter, cherry pick, set 2, dose response (AID 743343); format: functional;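 also: transfected cells were stimulated with diluted bursicon conditioned medium after compound addition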
[12] = blockade of melanocortin 4 receptor signaling – cell-based, plate reader, cherry pick, counter-screen for LGR2 antagonist project, dose response (AID 743444); format: functional;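 also: transfected HEK 293 cells stimulated with alpha-MSH peptide; potency of inhibitors of the alpha-MSH evoked signal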
HEK293 [13] = assay: membrane integrity loss in HEK cells – cell-based, fluorescence, cytotoxicity control for IDE activator project, dose response (AID 588440); format: functional; conditions: Homo sapiens;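 also: cytotoxicity by LDH release measuring loss of membrane integrity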
HEK293 [14] = assay: optical interference in Abeta FP readout, dose response, artefact control for IDE activator project, biochemical, fluorescence polarization (AID 588442); format: functional, cell-based; conditions: Homo sapiens
[15] = reduction of Shn3 3'UTR-driven luciferase in osteoblasts – cell-based, Clone20 osteoblasts, firefly luciferase, cherry-picked, dose response (AID 624132); format: functional;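 also: firefly luciferase luminescence from reporter carrying the Shn3 3'UTR in osteoblasts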
[16] = target: 26S proteasome non-ATPase regulatory subunit 14 (Homo sapiens, UniProt O00487); assay: inhibition of proteasome subunit RPN11 – biochemical, fluorescence polarization, uHTS hits, confirmation (AID 602368); format: functional
Sequence of 26S proteasome non-ATPase regulatory subunit 14 (O00487 whole entry): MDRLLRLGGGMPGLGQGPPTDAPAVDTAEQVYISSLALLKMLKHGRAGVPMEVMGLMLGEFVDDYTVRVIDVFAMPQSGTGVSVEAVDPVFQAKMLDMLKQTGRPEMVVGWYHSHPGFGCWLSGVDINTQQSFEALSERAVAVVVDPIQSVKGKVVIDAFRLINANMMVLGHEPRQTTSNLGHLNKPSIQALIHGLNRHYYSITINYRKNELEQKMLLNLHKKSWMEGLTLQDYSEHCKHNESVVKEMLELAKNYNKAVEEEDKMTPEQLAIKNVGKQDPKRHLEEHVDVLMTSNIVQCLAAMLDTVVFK

[17] = loss of viability in HepG2 cells – cell-based, CellTiter-Glo, cherry-picked, cytotoxicity control for Shn3 inhibitor project, dose response (AID 624134); format: functional
[18] = non-specific 3'UTR reporter inhibition in Clone20-Shn3RL – cell-based, Renilla luciferase, cherry-picked, counter-screen for Shn3 inhibitor project, dose response (AID 624133); format: functional
[19] = target: 72 kDa type IV collagenase (Homo sapiens, UniProt P08253); assay: Dose Response validation of uHTS RPN11 inhibitor hits using a MMP-2 Fluorescence assay.; format: functional
Prothrombin = Prothrombin (Bos taurus, UniProt P00735); assay: thrombin protease inhibitors – biochemical, fluorescence polarization, uHTS hits, dose response (AID 602369); format: functional
[20] = test system: Streptococcus sp. 'group A'; assay: Streptococcus pyogenes SK(-)GAS viability under kanamycin – luminescence, BacTiterGlo, confirmation, counter-screen for streptokinase expression inhibitor project, dose response (AID 1900); format: functional, organism-based
Streptokinase A = target: T1, Streptokinase A (Streptococcus pyogenes serotype M1, UniProt P10520); assay: viability-normalized secreted streptokinase activity reduction – plasminogen activation absorbance, OD405, dose response (AID 1914); format: functional, Streptococcus pyogenes M1 GAS;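 also: secreted streptokinase activity via plasminogen activation per viability signal from cell pellet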
T1 sequence (P10520 whole entry): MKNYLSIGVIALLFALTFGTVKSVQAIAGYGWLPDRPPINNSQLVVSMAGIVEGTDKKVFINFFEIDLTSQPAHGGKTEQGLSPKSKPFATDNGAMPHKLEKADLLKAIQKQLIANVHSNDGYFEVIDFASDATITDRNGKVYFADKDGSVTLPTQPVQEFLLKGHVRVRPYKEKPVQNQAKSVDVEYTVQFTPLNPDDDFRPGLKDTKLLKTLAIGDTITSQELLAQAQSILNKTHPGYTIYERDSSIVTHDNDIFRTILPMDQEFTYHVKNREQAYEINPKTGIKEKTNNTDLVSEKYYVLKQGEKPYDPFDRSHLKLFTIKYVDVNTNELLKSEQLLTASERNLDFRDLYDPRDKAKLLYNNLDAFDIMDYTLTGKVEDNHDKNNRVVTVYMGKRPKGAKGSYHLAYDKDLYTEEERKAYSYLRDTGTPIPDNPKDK

Streptococcus = assay: GAS UMAA2166 growth inhibition – luminescence, BacTiterGlo, counter-screen for streptokinase expression inhibitor project, dose response (AID 1915); format: functional, organism-based;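 also: potency for reduction of bacterial viability or growth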
[21] = target: T2, Endoribonuclease toxin MazF (Escherichia coli K-12, UniProt P0AE70); assay: activation of MazEF endoribonuclease cleavage – biochemical, fluorescence, single-stranded RNA substrate, uHTS hits, dose response (AID 588481); format: functional
T2 sequence (P0AE70 whole entry): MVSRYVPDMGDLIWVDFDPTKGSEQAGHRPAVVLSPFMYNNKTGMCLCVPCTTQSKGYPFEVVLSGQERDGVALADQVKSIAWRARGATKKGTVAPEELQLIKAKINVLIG

[22] = target: T2, Endoribonuclease toxin MazF; assay: substrate-only fluorescence increase artefacts – biochemical, single-stranded RNase substrate, counter-screen for MazEF activator project, dose response (AID 588502); format: functional

Sequence of Cytochrome P450 2D6 (P10635 whole entry): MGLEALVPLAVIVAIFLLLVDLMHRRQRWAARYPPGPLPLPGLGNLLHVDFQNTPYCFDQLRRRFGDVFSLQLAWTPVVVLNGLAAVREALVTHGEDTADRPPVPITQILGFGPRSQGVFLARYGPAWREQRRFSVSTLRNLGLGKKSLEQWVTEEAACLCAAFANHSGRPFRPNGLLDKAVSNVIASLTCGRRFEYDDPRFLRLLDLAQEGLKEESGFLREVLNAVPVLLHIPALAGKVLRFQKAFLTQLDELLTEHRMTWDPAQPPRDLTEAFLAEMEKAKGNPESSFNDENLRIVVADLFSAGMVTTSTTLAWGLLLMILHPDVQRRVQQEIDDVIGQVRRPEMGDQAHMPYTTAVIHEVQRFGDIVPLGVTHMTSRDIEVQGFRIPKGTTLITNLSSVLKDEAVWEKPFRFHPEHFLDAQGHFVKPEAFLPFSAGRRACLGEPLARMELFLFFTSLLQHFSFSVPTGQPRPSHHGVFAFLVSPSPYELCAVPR
Sequence of Cytochrome P450 3A4 (P08684 whole entry): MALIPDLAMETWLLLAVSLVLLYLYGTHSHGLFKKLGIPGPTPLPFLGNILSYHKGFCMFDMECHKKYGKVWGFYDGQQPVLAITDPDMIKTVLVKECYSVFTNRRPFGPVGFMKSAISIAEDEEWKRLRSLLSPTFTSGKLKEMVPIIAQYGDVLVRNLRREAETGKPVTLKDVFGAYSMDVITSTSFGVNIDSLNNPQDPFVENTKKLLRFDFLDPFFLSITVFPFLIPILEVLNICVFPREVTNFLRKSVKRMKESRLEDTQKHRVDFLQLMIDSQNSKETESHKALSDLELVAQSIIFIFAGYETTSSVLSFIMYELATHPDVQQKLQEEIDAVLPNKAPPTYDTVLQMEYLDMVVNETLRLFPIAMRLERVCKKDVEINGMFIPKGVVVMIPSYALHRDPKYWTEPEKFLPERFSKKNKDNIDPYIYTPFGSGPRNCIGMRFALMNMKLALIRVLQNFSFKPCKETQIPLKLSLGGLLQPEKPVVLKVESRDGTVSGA
Sequence of Cytochrome P450 2C9 (P11712 whole entry): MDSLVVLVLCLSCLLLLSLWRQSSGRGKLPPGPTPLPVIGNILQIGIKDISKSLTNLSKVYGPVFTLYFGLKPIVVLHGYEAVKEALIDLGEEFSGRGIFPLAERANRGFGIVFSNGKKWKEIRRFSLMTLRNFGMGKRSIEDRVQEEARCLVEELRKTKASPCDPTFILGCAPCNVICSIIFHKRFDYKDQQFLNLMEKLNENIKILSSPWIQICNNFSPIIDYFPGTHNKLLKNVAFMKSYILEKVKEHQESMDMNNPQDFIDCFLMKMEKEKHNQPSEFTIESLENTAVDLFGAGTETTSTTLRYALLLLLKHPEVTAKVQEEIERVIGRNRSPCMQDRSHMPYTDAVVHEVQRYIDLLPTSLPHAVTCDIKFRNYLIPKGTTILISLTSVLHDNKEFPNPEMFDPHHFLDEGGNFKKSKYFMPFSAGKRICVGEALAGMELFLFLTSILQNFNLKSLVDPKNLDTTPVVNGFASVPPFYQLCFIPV

**Q.** For `O=C(NCc1ccccn1)c1cc(-c2ccccc2Cl)on1`, which AC50 (Cytochrome P450 3A4) is on record?
**A.** Its AC50 is 15.8 µM (inconclusive).

**Q.** And the AC50 (Cytochrome P450 2D6)?
**A.** Its AC50 is “inconclusive”.

**Q.** And the AC50 (Cytochrome P450 2C9)?
**A.** The AC50 was “inconclusive”.

**Q.** For `CCOC(=O)N1CCC(NC(=O)CSc2cc(=O)n(C)c3ccccc23)CC1`, which EC50 [1] is on record?
**A.** Its EC50 is > 79.4 µM (inactive).

**Q.** And the EC50 [2]?
**A.** Its EC50 is > 79.4 µM (not active).

**Q.** And the EC50 [3]?
**A.** Its EC50 is > 79.4 µM (not active).

**Q.** For `Oc1ccc(NCc2cccs2)cc1`, which IC50 (Large T antigen) is on record?
**A.** The IC50 was 28.7 µM (active).

**Q.** And the CC50 (Vero)?
**A.** Its CC50 is > 40 µM (active).

**Q.** For `COc1ccc(NC(=O)N2CC[C@@]3(CCCN(C(=O)c4cnccn4)C3)C2)cc1`, which AC50 (Cytochrome P450 3A4) is on record?
**A.** The AC50 was 3.16 µM (inconclusive).

**Q.** And the AC50 (Cytochrome P450 2D6)?
**A.** Its AC50 is “inconclusive”.

**Q.** With `c1ccc(-n2nnc3c(N4CCOCC4)ncnc32)cc1` as the compound, how does the CC50 [4] read?
**A.** The CC50 was 23.6 µM (active).

**Q.** What about the EC50 [5] of the same compound?
**A.** The EC50 was 6.29 µM (inconclusive).

**Q.** What about the EC50 [6] of the same compound?
**A.** The EC50 was 8.24 µM (active).

**Q.** And the EC50 [7]?
**A.** Its EC50 is 7.18 µM (inconclusive).

**Q.** What about the AC50 (HEK293 [8]) of the same compound?
**A.** Its AC50 is 2.47 µM (active).

**Q.** What about the AC50 [9] of the same compound?
**A.** Its AC50 is > 52 µM (inactive).

**Q.** What about the AC50 [10] of the same compound?
**A.** The AC50 was > 52 µM (inactive).

**Q.** What about the AC50 [11] of the same compound?
**A.** The AC50 was 7.67 µM (active).

**Q.** What about the AC50 [12] of the same compound?
**A.** Its AC50 is 8.39 µM (active).

**Q.** Which results are given for `Cc1[nH]c(O)nc1C(=O)CCCCC(=O)O`?
**A.** IC50 (HEK293 [13]): > 89.3 µM (inactive); EC50 (HEK293 [14]): 22.6 µM (inactive)

**Q.** With `CCc1ccc(NC(=O)C2CCN(S(=O)(=O)c3ccc4c(c3)NC(=O)C(C)S4)CC2)cc1` (stereo not drawn) as the compound, how does the AC50 [15] read?
**A.** Its AC50 is 7.08 µM (active).

**Q.** What about the IC50 [16] of the same compound?
**A.** Its IC50 is 31.8 µM (active).

**Q.** And the AC50 [17]?
**A.** The AC50 was 6.54 µM (active).

**Q.** What about the AC50 [18] of the same compound?
**A.** Its AC50 is 6 µM (active).

**Q.** And the IC50 [19]?
**A.** Its IC50 is > 100 µM (inactive).

**Q.** What about the IC50 (Prothrombin) of the same compound?
**A.** Its IC50 is 42 µM (active).

**Q.** For `Cc1ccc(/C=C/C(=O)C2C(=O)c3ccccc3C2=O)cc1`, which EC50 [20] is on record?
**A.** The EC50 was 1.95 µM (active).

**Q.** What about the EC50 (Streptokinase A) of the same compound?
**A.** Its EC50 is > 150 µM (not active).

**Q.** And the EC50 (Streptococcus)?
**A.** Its EC50 is 9.64 µM (active).

**Q.** And the AC50 (HEK293 [8])?
**A.** The AC50 was 4.18 µM (active).

**Q.** What does the source list for `COC(=O)CSc1nc2cc(C)ccc2cc1C#N`?
**A.** EC50 [21]: > 99 µM (inactive); EC50 [22]: > 99 µM (inactive)
